Series [1] concerns ribonucleases present in rat plasma. Put plainly: Stability of siRNA in rat plasma (PAGE gel, densitometry). The series is classed as in vitro ADME. To be noted: for level of degradation on PAGE gel after treatment with plasma: fresh rat plasma, 37° C., time points 0, 30, 60 and 20 min; for Stability Ranking: rat plasma 37° C. Here is the method: At various time points (0, 30, 60 and 20 min), 50 μ*l of the mixture was taken out and immediately extracted by phenol:chloroform. SiRNAs were dried following precipitation by adding 2.5 volume of isopropanol alcohol and subsequent washing step with 70% ethanol. After dissolving in water and gel loading buffer the samples were analyzed on 20% polyacrylamide gel, containing 7 M urea and visualized by ethidium bromide staining and quantitated by densitometry.
The purpose of this experiment was to determine whether 2′-O-methyl modified ribonucleotides and the substitution of uridines with ribothymidines (5-methyluridine) provide for greater siRNA stability against rat plasma ribonucleases.
At various time points (0, 30, 60 and 20 min), 50 μl of the mixture was taken out and immediately extracted by phenol:chloroform. siRNAs were dried following precipitation by adding 2.5 volume of isopropanol alcohol and subsequent washing step with 70% ethanol. After resuspending in water and gel loading buffer the samples were analyzed gel electrophoresis on a 20% polyacrylamide gel, containing 7 M urea and subsequently visualized by ethidium bromide staining and quantified by densitometry.

Series [2] is described as follows: Thermal melting profiles (Tm) of β-gal siRNA duplexes. The series is classed as physicochemical. To be noted: for Avg. Tm from 1st Exp. / Tm: 1st experiment; for Avg. Tm from 2nd Exp.: 2nd (duplicate) experiment; for melts at a temperature of: text summary of Table 7; for melting temperature higher than the wild type (duplex I): versus duplex I. An excerpt: The purpose of this experiment was to determine the effect of incorporating ribothymidines in a double stranded RNA molecule in place of uridines on the melting temperature (TM) of the siRNA molecule. A higher Tm correlates with increased siRNA duplex stability.
To determine the effect of replacing uridines with ribothymidines in the siRNA duplex upon melting temperature, thermal melting profiles were generated for four β-galactosidase (β-gal) siRNA molecules (table 5). These four β-gal siRNA duplexes differ only by the presence or absence of ribothymidines in the siRNA duplex. Where rT is 5-methyluridine.
The stock solutions of single stranded oligonucleotides were prepared by dissolving the selected sequences in 400 μL 10 mM buffer phosphate pH 7.0 containing 0.1 M NaCl and 0.1 mM EDTA and diluted (1 μL to 200 μL) with water and absorbencies (A260) were measured and the contents were calculated. Also the integrity of the oligonucleotides was confirmed by HPLC analysis. To prepare the siRNA duplexes, the single stranded oligonucleotides were mixed and allowed to anneal. The UV absorption (A260) for each siRNA duplex was measured and their value are as follows: I (0.28), II (0.54), III (0.31), and IV (0.45). To test for reproducibility, the melting profile study was done in duplicate.
The thermal melting profiles of the duplexes I, II, III and IV were recorded on Shimadzu UV-VIS 1601 with thermoelectrically temperature controlled through the Peltier device. The temperature was changed at the rate of 0.5° C./minute from 90° C. to 25° C. while the absorption recorded at 260 nm. The reverse experiment is also repeated. The “melting” process is a physical phenomenon. Therefore, the generated profile (90° to 25°) ought to be superimposed on the reverse ([…] to 90°).
Differential curves were used to determine the melting point (Tm) of the duplexes. The shape of the curve defined by the derivative of a curve (versus 1/T) was used to make a robust determination of Tm and other thermodynamic data. Shimadzu TMSPC-8 and its associated software performed the needed calculations.

The next series concerns interferon response. Put plainly: Interferon response in vitro. The series is classed as cell-based. Here is the method: Interferon responsiveness is a potential side-effect of tranfecting cells with siRNAs. Thus, a study was performed in vitro to assess whether various isoforms of the LC20 siRNA would elicit an interferon response. Both unmodified and modified of the 19-mer LC20 siRNA and 21-mer LC20 siRNA were tested.

As usually defined, the Tm is the temperature at the midpoint of the melting transition.

For the substance “I (WT): unmodified β-gal siRNA: CUACACAAAUCAGCGAUUU TT / TT GAUGUGUUUAGUCGCUAAA (sense CUACACAAAUCAGCGAUUUTT; antisense TTGAUGUGUUUAGUCGCUAAA; chemistry not fully specified; one strand is listed 3' to 5') [reference compound]”, the “level of degradation on PAGE gel after treatment with plasma” value (from here on “level of degradation on PAGE gel”) in series [1] was “begins to degrade almost immediately”. Besides, the “Avg. Tm from 1st Exp.” value in series [2] was 64.9 °C. For the same substance, the “Avg. Tm from 2nd Exp.” value in series [2] came to 64.9 °C. For the same substance, the melting temperature (Tm) in series [2] (Down profile) amounted to 65.6 °C; in series [2] (Up profile), 64.3 °C.
In the case of “II: β-gal siRNA, all uracils in both strands changed to ribothymidine (SEQ ID NO:1/2) (chain 1 CNACACAAANCAGCGANNNTT; chain 2 AAANCGCNGANNNGNGNAGTT; RNA at 1, 2, 3, 4, 5, 6, 7, 8, 9, 10, 11, 12, 13, 14, 15, 16, 17, 18, 19, other sugars, backbone and the base at N not given here; all uracils replaced by ribothymidine in both strands)”, the “level of degradation on PAGE gel” value in series [1] is recorded as “little to no degradation”. For the same substance, in series [2], the “Avg. Tm from 1st Exp.” value came out at 72.35 °C, the “Avg. Tm from 2nd Exp.” value was 72.25 °C, the “melts at a temperature of” value was “about 72.3 °C” and the “melting temperature higher than the wild type (duplex I)” value is 7.4 °C. Besides, in series [2] (Down profile), the Tm worked out at 72.8 °C. In addition, in series [2] (Up profile), the Tm was determined as 71.9 °C.
For “III: β-gal siRNA, rT incorporated in the anti-sense strand only (SEQ ID NO:5/6) (chain 1 CNACACAAANCAGCGANNNTT; chain 2 AAANCGCNGANNNGNGNAGTT; RNA at 1, 2, 3, 4, 5, 6, 7, 8, 9, 10, 11, 12, 13, 14, 15, 16, 17, 18, 19, other sugars, backbone and the base at N not given here; ribothymidine replaces uracil in antisense strand only)”, in series [2], the “Avg. Tm from 1st Exp.” value came to 72.4 °C, the “Avg. Tm from 2nd Exp.” value turned out to be 69.8 °C and the “melting temperature higher than the wild type (duplex I)” value was “approximately 4.9 °C”. Besides, in series [2] (Down profile), the midpoint of thermal melting (Tm) was 72.9 °C. Besides, the midpoint of thermal melting (Tm) in series [2] (Up profile) came out at 71.9 °C.
As for “IV: β-gal siRNA, rT incorporated in the sense strand only (SEQ ID NO:3/4) (chain 1 CTACACAAATCAGCGATTTTT; chain 2 AAAUCGCUGAUUUGUGUAGTT; chain 1: RNA at 2, 10, 17, 18, 19, other sugars and backbone not given here; chain 2: RNA at 4, 8, 11, 12, 13, 15, 17, other sugars and backbone not given here; positions 1-19 ribonucleotides, further chemistry not fully specified)”, the “level of degradation on PAGE gel” value in series [1] is reported as “little to no degradation”. In series [2], the “Avg. Tm from 1st Exp.” value was 67.8 °C, the “Avg. Tm from 2nd Exp.” value was 67.8 °C, the “melts at a temperature of” value was determined as 67.8 °C and the “melting temperature higher than the wild type (duplex I)” value stood at 2.9 °C. In addition, the Tm in series [2] (Down profile) was found to be 67.8 °C. Further, in series [2] (Up profile), the Tm came to 67.8 °C.
“LC20-19mer: No 3′ overhangs and unmodified: 5′-GGGUCGGAACCCAAGCUUA-3′ / 3′-CCCAGCCUUGGGUUCGAAU-p-5′ (siRNA; 5' phosphate on antisense, chemistry not fully specified; one strand is listed 3' to 5')”: the “Stability Ranking” value in series [1] (LC20 siRNAs (Table 3)) is listed as 4. The interferon response result with interferon response is recorded as “did not elicit an interferon response”.
For “LC20-MD23: 5′-GGGT^rCGGAACCCAAGCT^r U^MeOA^MeOdTdT-3′ / 3′-CCCAGCCUUGGGUUCGAAU-p-5′”, in series [1] (LC20 siRNAs (Table 3)), the “Stability Ranking” value is on record as 3.
Regarding “LC20-WT: Unmodified: 5′-GGGUCGGAACCCAAGCUUA dTdT-3′ / 3′-dAdT CCCAGCCUUGGGUUCGAAU-p-5′”, the “Stability Ranking” value in series [1] (LC13 siRNAs (Table 4)) and in series [1] (LC20 siRNAs (Table 3)) was 4 in each case. Moreover, the interferon response result in the series on interferon response is reported as “did not elicit an interferon response”.

The record behind these values is patent publication US20060122137A1, “5'-methylpyrimidine and 2'-O-methyl ribonucleotide modified double-stranded ribonucleic acid molecules” (Nastech Pharmaceutical Company Inc., priority 2003, published 2006).
